Reference: publication PMC6133092, “Synthesis of 2-alkylthio-N-(quinazolin-2-yl)benzenesulfonamide derivatives: anticancer activity, QSAR studies, and metabolic stability” (Monatshefte Fur Chemie, 2018)

Legend:
HeLa (cervical cancer) = assay: MTT cell viability assay, HeLa; type: cell-based; settings: Homo sapiens
Experimental: (§1) All chemicals, if not stated otherwise, were obtained from Sigma-Aldrich (St. Louis, MO, USA). The MCF-7 and HeLa cell lines were purchased from Cell Lines Services (Eppelheim, Germany), the HCT-116 cell line was purchased from ATCC (ATCC-No: CCL-247). Cells were cultured in Dulbecco’s modified Eagle’s medium (DMEM) supplemented with 10% fetal bovine serum, 2 mM glutamine, 100 units/cm^3 penicillin, and 100 μg/cm^3 streptomycin. Cultures were maintained in a humidified atmosphere with 5% CO2 at 37 °C in an incubator (Heraceus, HeraCell).
(§2) Cell viability was determined using the MTT (3-(4,5-dimethylthiazol-2-yl)-2,5-diphenyltetrazolium bromide) assay. Cells were seeded in 96-well plates at a density of 5 × 10^3 cells/well and treated for 72 h with the examined compounds in the concentration range 1–100 μM (1, 10, 25, 50, and 100 μM). Following treatment, MTT (0.5 mg/cm^3) was added to the medium and cells were further incubated for 2 h at 37 °C. Cells were lysed with DMSO and the absorbance of the formazan solution was measured at 550 nm with a plate reader (Victor, 1420 multilabel counter). […] The experiment was performed in triplicate. Values are expressed as the mean ± SD of at least three independent experiments.

HCT-116 (colon cancer) = assay: MTT cell viability assay, HCT-116; type: cell-based; settings: Homo sapiens, 72 h, mean ± SD
Experimental: as §1, §2

MCF-7 (breast cancer) = assay: MTT cell viability assay, MCF-7; type: cell-based, human; settings: Homo sapiens, MCF7, 72 h, mean ± SD
Experimental: (§3) All of the newly synthesized compounds 9–24 were evaluated for their effects on cell viability in three human cancer cell lines: HCT-116 (colon cancer), HeLa (cervical cancer), and MCF-7 (breast cancer). Cisplatin was used as reference drug. […] Considering the activity of derivatives 9–12, 15, 17, 18, and 21–24, it can be noticed that phenyl group as R^3 bring an increase of cytotoxicity in comparison with methyl in place of R^3. However, this impact seems to be the most important for compounds with the bulky group in R^1 and generally, it is less for a set of derivatives with methyl group substituted in R^1 (9–12).
as §1, §2

NCI-H522 = assay: NCI-60 single dose screen, NCI-H522; type: cell-based; settings: Homo sapiens, NSCLC, single concentration 10^−5 M, read-out: IGP (inhibition growth percent) NCI-H522
Experimental: (§4) Aside from above, compounds 9–14 and 17–24 were also submitted to National Cancer Institute and evaluated for the cytotoxic effects toward 60 cell lines at a single dose of 10 μM (Table 2). […] As it was summarized in Table 2, leukemia RPMI-8226 and NSCLC A549/ATCC were most sensitive to compounds 18, 22, and 24. These derivatives in 10 μM concentration inhibited the growth of approximately 50% cells belonging to the above mention cell lines.
(§5) Cytotoxicity evaluation of compounds 9–14 and 17–24 was performed at the National Cancer Institute according to NCI-60 DTP human tumor cell line screen procedure.

UACC-62 = assay: NCI-60 single dose screen, UACC-62; type: cell-based; settings: Homo sapiens, Melanoma, single concentration 10^−5 M, read-out: IGP (inhibition growth percent) UACC-62
Experimental: as §4, §5

MOLT-4 = assay: NCI-60 single dose screen, MOLT-4; type: cell-based; settings: Homo sapiens, Leukemia, single concentration 10^−5 M, read-out: IGP (inhibition growth percent) MOLT-4
Experimental: as §4, §5

[1] = Metabolic stability in human liver microsomes with NADPH; type: in vitro ADME; settings: pooled human liver microsomes, pH 7.4, human liver microsomes 0.5 mg/cm^3, NADPH 1 mM, 10 μM compound, 37 °C, read-out: in vitro metabolic half-life t1/2
Experimental: Selected derivatives were submitted to metabolic stability study to assess their ability to remain unchanged in the presence of human metabolic enzymes. Human liver microsomes were used as they are a rich source of all common CYP isoenzymes. In vitro incubations were performed in the presence of NADPH as a cofactor and the disappearance of a derivative was followed using LC–MS technique. The in vitro metabolic half-life values are gathered in Fig. 3.
Stock solutions of studied compounds were prepared at concentration of 10 mM in DMSO. […] Incubation mixture contained 10 μM of a studied derivative, 1 mM of NADPH (Sigma-Aldrich) and 0.5 mg/cm^3 of pooled human liver microsomes (HLM, Sigma-Aldrich) in potassium phosphate buffer (0.1 M, pH 7.4). Incubation was carried out in thermostat at 37 °C and started by addition of studied compound. 50 mm^3 samples were taken at starting point and after 5, 15, 30, 45, and 60 min. Enzymatic reaction was terminated by the addition of the equal volume of ice-cold acetonitrile. Incubations were performed in triplicates, the average t1/2 and standard deviation was calculated. Control incubations were performed without NADPH to assess chemical instability. After collection, samples were immediately centrifuged (10 min, 10,000 rpm) and resulted supernatant was directly analyzed or kept in − 80 °C until LC–MS analysis. Natural logarithm of a compound over IS peak area ratio was plotted versus incubation time. Metabolic half-time (t1/2) was calculated from the slope of the linear regression.
LC–MS analysis was performed on an Agilent 1260 system coupled to SingleQuad 6120 mass spectrometer (Agilent Technologies, Santa Clara, CA, USA). Poroshell EC-C18 (2.1 mm × 150 mm, 2.7 μm, Agilent Technologies, Santa Clara, CA, USA) was used in reversed-phase mode with gradient elution starting with 5% of phase A (10 mM ammonium formate in water) and 95% of phase B (10 mM ammonium formate in acetonitrile–water mixture, 95:5 v/v). […] Total analysis time was 15 min at 40 °C, flow rate was 1 cm^3/min and the injection volume was 5 mm^3. The mass spectrometer was equipped with electrospray ion source and operated in positive ionization. Mass analyzer was set individually to each compound to detect [M+H]^+ protonated molecule. MSD parameters of the ESI source were as follows: nebulizer pressure 35 psig (N2), drying gas […] (N2), drying gas temperature 300 °C, capillary voltage 3 kV, fragmentor voltage 150 V.

HCT-116, HeLa, MCF-7 = assay: MTT assays, mean over three tested cell lines; type: cell-based; settings: Homo sapiens, mean of HCT-116, HeLa, read-out: mean IC50 against three tested cell lines
Experimental: as §3, §2

PC-3 = assay: NCI-60 single dose screen, PC-3; type: cell-based; settings: Homo sapiens, Prostate cancer, single concentration 10^−5 M, read-out: IGP (inhibition growth percent) PC-3
Experimental: as §4, §5

A549/ATCC = assay: NCI-60 single dose screen, A549/ATCC; type: cell-based; settings: Homo sapiens, A549, NSCLC; single concentration 10^−5 M; read-out: IGP (inhibition growth percent) A549/ATCC
Experimental: as §4, §5

HCT-116 = assay: NCI-60 single dose screen, HCT-116; type: cell-based; settings: Homo sapiens, Colon cancer, single concentration 10^−5 M, read-out: IGP (inhibition growth percent) HCT-116
Experimental: as §4, §5

UO-31 = assay: NCI-60 single dose screen, UO-31; type: cell-based; settings: Homo sapiens, Renal cancer, single concentration 10^−5 M, read-out: IGP (inhibition growth percent) UO-31
Experimental: as §4, §5

MCF-7 = assay: NCI-60 single dose screen, MCF-7; type: cell-based; settings: Homo sapiens, MCF7; Breast cancer; single concentration 10^−5 M; read-out: IGP (inhibition growth percent) MCF-7
Experimental: as §4, §5

RPMI-8226 = assay: NCI-60 single dose screen, RPMI-8226; type: cell-based; settings: Homo sapiens, RPMI-8226, Leukemia; single concentration 10^−5 M; read-out: IGP (inhibition growth percent) RPMI-8226
Experimental: as §4, §5

HaCaT = assay: Cytotoxic effect against non-carcinogenic cell line HaCaT; type: cell-based
Experimental: For the compounds with the strongest cytotoxicity (12, 18, 22, and 24), an investigation of cytotoxic effect against non-carcinogenic cell line HaCaT was done. […] The activity against HCT-116 was 1.7-, 1.6-, 1.5-, and 1.4-fold higher when compared with HaCaT cell line, for compounds 12, 18, 22, and 24, respectively.
as §2

EKVX = assay: NCI-60 single dose screen, EKVX; type: cell-based; settings: Homo sapiens, NSCLC, single concentration 10^−5 M, read-out: IGP (inhibition growth percent) EKVX
Experimental: as §4, §5

SR = assay: NCI-60 single dose screen, SR; type: cell-based; settings: Homo sapiens, Leukemia, single concentration 10^−5 M, read-out: IGP (inhibition growth percent) SR
Experimental: as §4, §5

HOP-92 = assay: NCI-60 single dose screen, HOP-92; type: cell-based; settings: Homo sapiens, NSCLC, single concentration 10^−5 M, read-out: IGP (inhibition growth percent) HOP-92
Experimental: as §4, §5

[2] = Table 4, repeats Table 1 values without SD and unit

## CCOC(=O)CSc1cc(Cl)c(C)cc1S(=O)(=O)Nc1nc(-c2ccccc2)c2ccccc2n1 [Compound 16, 4-Chloro-2-(2-ethoxy-2-oxoethylthio)-5-methyl-N-(4-phenyl-quinazolin-2-yl)benzenesulfonamide]
HeLa (cervical cancer); MTT, 72 h, mean ± SD
  IC50: 74 ± 4 µM
HeLa (cervical cancer); [2]
  IC50: 74 µM
other
  melting point: 162 to 165 °C
HCT-116 (colon cancer)
  IC50: 62 ± 1 µM
MCF-7 (breast cancer)
  IC50: 105 ± 3 µM

## Cc1cc(S(=O)(=O)Nc2nc(-c3ccccc3)c3ccccc3n2)c(SCc2cc3c(cc2Cl)OCO3)cc1Cl [Compound 12, 4-Chloro-2-(6-chlorobenzo[d][1,3]dioxol-5-ylmethylthio)-5-methyl-N-(4-phenylquinazolin-2-yl)benzenesulfonamide]
NCI-H522
  inhibition at 10 µM: 16%
UACC-62
  inhibition at 10 µM: 33%
MOLT-4
  inhibition at 10 µM: 12%
[1]
  half-life at 10 μM: 48.1 min
HCT-116, HeLa, MCF-7
  IC50: 44.7 µM
PC-3
  inhibition at 10 µM: 14%
A549/ATCC
  inhibition at 10 µM: 14%
HeLa (cervical cancer); MTT, 72 h, mean ± SD
  IC50: 46 ± 1 µM
HeLa (cervical cancer); [2]
  IC50: 46 µM
HCT-116
  inhibition at 10 µM: 6%
UO-31
  inhibition at 10 µM: 25%
HCT-116 (colon cancer)
  IC50: 37 ± 1 µM
MCF-7 (breast cancer)
  IC50: 51 ± 2 µM
MCF-7
  inhibition at 10 µM: 5%
RPMI-8226
  inhibition at 10 µM: 2%
HaCaT; Homo sapiens, HaCaT, non-carcinogenic cell line, mean ± SD
  IC50: 64 ± 2 µM
HaCaT; selectivity HCT-116 vs HaCaT
  activity against HCT-116 fold higher compared with HaCaT: 1.7 fold
HaCaT; selectivity HeLa vs HaCaT
  inhibition of growth of HaCaT cells fold weaker than HeLa cells: 1.4 fold

## CCOC(=O)CSc1cc(Cl)c(C)cc1S(=O)(=O)Nc1nc(C)c2ccccc2n1 [Compound 15, 4-Chloro-2-(2-ethoxy-2-oxoethylthio)-5-methyl-N-(4-methylquinazolin-2-yl)benzenesulfonamide]
HeLa (cervical cancer); MTT, 72 h, mean ± SD
  IC50: 230 ± 7 µM
other
  melting point: 192 to 194 °C
HCT-116 (colon cancer)
  IC50: 110 ± 2 µM
MCF-7 (breast cancer)
  IC50: 160 ± 6 µM

## Cc1cc(S(=O)(=O)Nc2nc(C)c3ccccc3n2)c(SCC(N)=O)cc1Cl [Compound 13, 2-Carbamoylmethylthio-4-chloro-5-methyl-N-(4-methylquinazolin-2-yl)benzenesulfonamide]
NCI-H522
  inhibition at 10 µM: 4%
MOLT-4
  inhibition at 10 µM: 11%
[1]
  half-life at 10 μM: 75.4 min
EKVX
  inhibition at 10 µM: 5%
HeLa (cervical cancer); MTT, 72 h, mean ± SD
  IC50: 320 ± 22 µM
other
  melting point: 232 to 235 °C (dec.)
SR
  inhibition at 10 µM: 12%
UO-31
  inhibition at 10 µM: 8%
HCT-116 (colon cancer)
  IC50: 260 ± 5 µM
MCF-7 (breast cancer)
  IC50: 440 ± 4 µM
MCF-7
  inhibition at 10 µM: 6%

## Cc1cc(S(=O)(=O)Nc2nc(-c3ccccc3)c3ccccc3n2)c(SCc2ccccc2)cc1Cl [Compound 10, 2-Benzylthio-4-chloro-5-methyl-N-(4-phenylquinazolin-2-yl)benzenesulfonamide]
UACC-62
  inhibition at 10 µM: 29%
MOLT-4
  inhibition at 10 µM: 25%
[1]
  half-life at 10 μM: 49.2 min
HOP-92
  inhibition at 10 µM: 17%
EKVX
  inhibition at 10 µM: 6%
HeLa (cervical cancer); MTT, 72 h, mean ± SD
  IC50: 61 ± 2 µM
HeLa (cervical cancer); [2]
  IC50: 61 µM
other
  melting point: 192 to 198 °C
SR
  inhibition at 10 µM: 14%
HCT-116
  inhibition at 10 µM: 8%
UO-31
  inhibition at 10 µM: 5%
HCT-116 (colon cancer)
  IC50: 44 ± 1 µM
MCF-7 (breast cancer)
  IC50: 57 ± 1 µM
MCF-7
  inhibition at 10 µM: 9%
RPMI-8226
  inhibition at 10 µM: 25%

## Cc1nc(NS(=O)(=O)c2cc(C(=O)Nc3ccc(Cl)cc3)c(Cl)cc2SCc2ccccc2)nc2ccccc12 [Compound 21, 2-Benzylthio-4-chloro-5-(4-chlorophenylcarbamoyl)-N-(4-methylquinazolin-2-yl)benzenesulfonamide]
NCI-H522
  inhibition at 10 µM: 20%
UACC-62
  inhibition at 10 µM: 6%
MOLT-4
  inhibition at 10 µM: 7%
[1]
  half-life at 10 μM: 37.7 min
HOP-92
  inhibition at 10 µM: 8%
EKVX
  inhibition at 10 µM: 8%
PC-3
  inhibition at 10 µM: 8%
A549/ATCC
  inhibition at 10 µM: 8%
HeLa (cervical cancer); MTT, 72 h, mean ± SD
  IC50: 71 ± 2 µM
HeLa (cervical cancer); [2]
  IC50: 71 µM
SR
  inhibition at 10 µM: 3%
HCT-116
  inhibition at 10 µM: 4%
UO-31
  inhibition at 10 µM: 22%
HCT-116 (colon cancer)
  IC50: 54 ± 1 µM
MCF-7 (breast cancer)
  IC50: 115 ± 2 µM
MCF-7
  inhibition at 10 µM: 5%
RPMI-8226
  inhibition at 10 µM: 12%
